Experimental data as given in patent publication US20100144809A1, “NOVEL BENZAMIDINE DERIVATIVES USEFUL AS POTASSIUM CHANNEL MODULATORS” (Neuro Search A/S, priority 2007, published 2010).

Target: T1, human BK channels (Homo sapiens, UniProt Q12791)
T1 construct: expressed in transfected cells; host or cells: Xenopus oocytes
Assay: Electrophysiological determination of BK current, two-electrode voltage clamp in Xenopus oocytes
Format: cell-based
Settings: 30 μM; increase of BK current relative to the basal current; Xenopus oocytes expressing human BK channels
Description: In this experiment we investigated the influence of the compounds of the invention on the membrane currents when determined electrophysiologically on Xenopus Oocytes capable of expressing human BK channels, and the current through the channels is recorded using the classical two-electrode voltage clamp technique.
The results of these determinations are presented in Table 1 below, and presented as the increase of BK current relative to the basal current.

T1 sequence (Q12791 whole entry): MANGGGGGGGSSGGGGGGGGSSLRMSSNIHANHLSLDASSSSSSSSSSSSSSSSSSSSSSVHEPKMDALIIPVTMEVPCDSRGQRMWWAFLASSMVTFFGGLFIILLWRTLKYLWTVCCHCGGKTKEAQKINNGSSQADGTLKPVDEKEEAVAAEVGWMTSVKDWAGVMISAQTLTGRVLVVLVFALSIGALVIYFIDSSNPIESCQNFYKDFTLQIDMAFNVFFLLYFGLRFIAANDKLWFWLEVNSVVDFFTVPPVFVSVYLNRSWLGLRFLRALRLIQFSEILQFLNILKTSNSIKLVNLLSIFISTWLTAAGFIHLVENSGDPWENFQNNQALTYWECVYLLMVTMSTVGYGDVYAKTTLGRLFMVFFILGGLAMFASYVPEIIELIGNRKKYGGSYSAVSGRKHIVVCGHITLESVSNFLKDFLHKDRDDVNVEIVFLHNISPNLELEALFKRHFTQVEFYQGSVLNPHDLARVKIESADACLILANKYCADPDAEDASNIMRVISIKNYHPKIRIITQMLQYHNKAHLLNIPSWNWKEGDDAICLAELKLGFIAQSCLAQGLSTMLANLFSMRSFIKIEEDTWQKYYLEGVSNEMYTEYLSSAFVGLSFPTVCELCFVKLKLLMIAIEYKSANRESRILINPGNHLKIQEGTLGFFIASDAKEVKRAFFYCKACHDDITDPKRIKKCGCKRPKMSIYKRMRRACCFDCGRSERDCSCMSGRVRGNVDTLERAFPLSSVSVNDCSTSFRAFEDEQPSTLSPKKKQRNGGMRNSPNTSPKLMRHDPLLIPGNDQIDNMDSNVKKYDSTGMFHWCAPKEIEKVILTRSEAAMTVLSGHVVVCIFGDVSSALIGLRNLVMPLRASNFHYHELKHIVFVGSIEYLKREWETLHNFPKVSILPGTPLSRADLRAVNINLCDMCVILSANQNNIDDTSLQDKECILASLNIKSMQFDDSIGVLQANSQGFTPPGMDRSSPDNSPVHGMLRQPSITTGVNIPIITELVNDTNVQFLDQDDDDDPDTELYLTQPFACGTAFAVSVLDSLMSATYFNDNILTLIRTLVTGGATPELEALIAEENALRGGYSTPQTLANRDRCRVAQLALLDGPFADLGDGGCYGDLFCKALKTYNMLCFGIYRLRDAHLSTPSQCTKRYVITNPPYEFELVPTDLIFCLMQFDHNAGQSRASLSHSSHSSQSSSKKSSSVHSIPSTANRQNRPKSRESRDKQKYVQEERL

Compared with NNC(=Nc1ccc(-c2ccc(C(F)(F)F)cc2)cc1-c1nnn[nH]1)c1cc(C(F)(F)F)cc(C(F)(F)F)c1 [Compound 1, N-Amino-N′-[3-(1H-tetrazol-5-yl)-4′-trifluoromethyl-biphenyl-4-yl]-3,5-bis-trifluoromethyl-benzamidine], ONC(=Nc1ccc(-c2ccc(C(F)(F)F)cc2)cc1-c1nnn[nH]1)c1cc(C(F)(F)F)cc(C(F)(F)F)c1 [Compound 3, N-Hydroxy-N′-[3-(1H-tetrazol-5-yl)-4′-trifluoromethyl-biphenyl-4-yl]-3,5-bis-trifluoromethyl-benzamidine] is higher in “Relative Increase of BK Current” value: 1118% for the first, 1342% for the second.

O=c1[nH]nc(-c2cc(C(F)(F)F)cc(C(F)(F)F)c2)n1-c1ccc(-c2ccc(C(F)(F)F)cc2)cc1-c1nn[nH]n1 [Compound 2, 5-(3,5-Bis-trifluoromethyl-phenyl)-4-[3-(2H-tetrazol-5-yl)-4′-trifluoromethyl-biphenyl-4-yl]-2,4-dihydro-[1,2,4]triazol-3-one] was tested, and the “Relative Increase of BK Current” value was 252%.
